Measurements reported in ChEMBL document CHEMBL5303765, “Data for DCP probe BAY-7081” (2023).

Assays:
[1] = molecular target: T1, Muscarinic acetylcholine receptor M2 (Homo sapiens) (UniProt P08172); conditions: Compound concentration 10.0 uM
T1 sequence (whole entry): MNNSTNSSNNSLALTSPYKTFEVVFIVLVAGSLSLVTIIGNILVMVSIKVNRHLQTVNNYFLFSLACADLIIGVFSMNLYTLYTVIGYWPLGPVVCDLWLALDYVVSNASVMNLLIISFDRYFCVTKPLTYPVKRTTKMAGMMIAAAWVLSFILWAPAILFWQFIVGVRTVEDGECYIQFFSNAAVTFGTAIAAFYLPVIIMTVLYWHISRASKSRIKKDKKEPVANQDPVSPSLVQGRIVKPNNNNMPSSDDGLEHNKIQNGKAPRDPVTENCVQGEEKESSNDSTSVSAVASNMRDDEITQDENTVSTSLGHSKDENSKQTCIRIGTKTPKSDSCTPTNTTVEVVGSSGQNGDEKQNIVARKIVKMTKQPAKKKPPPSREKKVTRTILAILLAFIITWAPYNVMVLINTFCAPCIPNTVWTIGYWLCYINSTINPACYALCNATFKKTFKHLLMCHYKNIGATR

[2] = molecular target: T2, Mitogen-activated protein kinase kinase kinase 5 (Homo sapiens) (UniProt Q99683); test: MAP3K5 SGC Tm panel (DSF); conditions: for ΔTm: Compound concentration 10.0 uM
T2 sequence (whole entry): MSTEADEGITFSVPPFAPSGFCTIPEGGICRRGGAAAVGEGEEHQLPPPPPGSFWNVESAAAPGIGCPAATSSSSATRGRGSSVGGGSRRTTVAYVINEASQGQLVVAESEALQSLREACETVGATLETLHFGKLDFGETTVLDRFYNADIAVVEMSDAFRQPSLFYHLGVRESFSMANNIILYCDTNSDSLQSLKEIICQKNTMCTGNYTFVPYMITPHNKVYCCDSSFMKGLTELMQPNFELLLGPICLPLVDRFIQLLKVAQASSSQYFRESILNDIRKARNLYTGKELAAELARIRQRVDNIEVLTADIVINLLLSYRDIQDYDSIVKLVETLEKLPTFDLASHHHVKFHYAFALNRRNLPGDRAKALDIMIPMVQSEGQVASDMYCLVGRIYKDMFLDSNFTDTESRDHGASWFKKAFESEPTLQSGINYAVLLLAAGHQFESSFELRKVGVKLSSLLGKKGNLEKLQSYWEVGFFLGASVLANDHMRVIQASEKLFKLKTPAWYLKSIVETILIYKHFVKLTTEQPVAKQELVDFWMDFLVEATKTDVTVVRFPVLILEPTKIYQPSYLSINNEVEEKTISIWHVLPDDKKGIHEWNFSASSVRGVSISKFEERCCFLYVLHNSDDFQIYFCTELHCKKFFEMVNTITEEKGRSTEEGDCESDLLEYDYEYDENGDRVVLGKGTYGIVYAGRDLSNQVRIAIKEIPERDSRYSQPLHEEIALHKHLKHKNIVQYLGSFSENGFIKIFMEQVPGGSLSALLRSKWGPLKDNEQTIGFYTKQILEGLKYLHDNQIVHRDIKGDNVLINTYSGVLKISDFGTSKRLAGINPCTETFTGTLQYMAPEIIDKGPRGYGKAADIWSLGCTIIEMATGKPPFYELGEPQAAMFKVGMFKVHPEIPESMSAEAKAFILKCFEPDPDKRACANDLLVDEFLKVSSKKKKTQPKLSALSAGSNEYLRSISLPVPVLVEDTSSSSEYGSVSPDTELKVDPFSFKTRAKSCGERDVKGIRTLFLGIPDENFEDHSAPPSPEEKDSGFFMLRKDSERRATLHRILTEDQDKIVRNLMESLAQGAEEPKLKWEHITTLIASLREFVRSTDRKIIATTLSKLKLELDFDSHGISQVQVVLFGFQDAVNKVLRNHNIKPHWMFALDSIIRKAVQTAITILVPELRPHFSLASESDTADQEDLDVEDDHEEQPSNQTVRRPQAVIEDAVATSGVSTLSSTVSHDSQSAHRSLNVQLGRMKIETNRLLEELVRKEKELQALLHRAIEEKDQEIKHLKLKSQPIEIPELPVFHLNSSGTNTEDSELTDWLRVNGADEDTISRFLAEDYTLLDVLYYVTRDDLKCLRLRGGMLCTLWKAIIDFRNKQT

[3] = molecular target: Aurora kinase B (Homo sapiens) (UniProt Q96GD4); test: AURKB SGC Tm panel (DSF); conditions: for ΔTm: Compound concentration 10.0 uM
Aurora kinase B (Homo sapiens), sequence (Q96GD4 whole entry): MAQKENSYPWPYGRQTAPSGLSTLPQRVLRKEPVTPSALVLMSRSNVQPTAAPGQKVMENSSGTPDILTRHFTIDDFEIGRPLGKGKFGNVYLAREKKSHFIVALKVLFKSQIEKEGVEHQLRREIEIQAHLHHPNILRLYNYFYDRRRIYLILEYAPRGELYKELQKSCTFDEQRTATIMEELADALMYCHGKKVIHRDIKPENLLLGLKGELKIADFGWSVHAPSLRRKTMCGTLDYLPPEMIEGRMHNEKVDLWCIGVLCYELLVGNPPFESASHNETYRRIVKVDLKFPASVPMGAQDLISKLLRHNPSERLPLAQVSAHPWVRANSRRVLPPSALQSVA

[4] = molecular target: GABA-A receptor; anion channel (Rattus norvegicus) (UniProt O09028+P15431+P18506+P18508+P19969+P20236+P23574+P23576+P28471+P28473+P30191+P62813+P63079+P63138+Q91ZM7+Q9ES14); conditions: Compound concentration 10.0 uM
[5] = molecular target: 5-hydroxytryptamine receptor 7 (Homo sapiens) (UniProt P34969); conditions: Compound concentration 10.0 uM
5-hydroxytryptamine receptor 7 (Homo sapiens), sequence (P34969 whole entry): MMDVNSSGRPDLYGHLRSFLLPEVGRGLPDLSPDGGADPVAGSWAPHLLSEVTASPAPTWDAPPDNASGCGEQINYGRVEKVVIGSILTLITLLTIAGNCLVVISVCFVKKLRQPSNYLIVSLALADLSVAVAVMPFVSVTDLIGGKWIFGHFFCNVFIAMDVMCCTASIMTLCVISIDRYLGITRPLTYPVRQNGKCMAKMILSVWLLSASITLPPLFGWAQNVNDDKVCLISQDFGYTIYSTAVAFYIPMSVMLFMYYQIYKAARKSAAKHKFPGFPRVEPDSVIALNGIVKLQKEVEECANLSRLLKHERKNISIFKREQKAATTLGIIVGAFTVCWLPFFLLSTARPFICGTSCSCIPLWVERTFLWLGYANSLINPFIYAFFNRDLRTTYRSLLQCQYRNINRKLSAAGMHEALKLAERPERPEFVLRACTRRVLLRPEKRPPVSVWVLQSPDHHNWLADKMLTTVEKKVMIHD

[6] = molecular target: BMP-2-inducible protein kinase (Homo sapiens) (UniProt Q9NSY1); test: BMP2K SGC Tm panel (DSF); conditions: for ΔTm: Compound concentration 10.0 uM
BMP-2-inducible protein kinase (Homo sapiens), sequence (Q9NSY1 whole entry, looked up): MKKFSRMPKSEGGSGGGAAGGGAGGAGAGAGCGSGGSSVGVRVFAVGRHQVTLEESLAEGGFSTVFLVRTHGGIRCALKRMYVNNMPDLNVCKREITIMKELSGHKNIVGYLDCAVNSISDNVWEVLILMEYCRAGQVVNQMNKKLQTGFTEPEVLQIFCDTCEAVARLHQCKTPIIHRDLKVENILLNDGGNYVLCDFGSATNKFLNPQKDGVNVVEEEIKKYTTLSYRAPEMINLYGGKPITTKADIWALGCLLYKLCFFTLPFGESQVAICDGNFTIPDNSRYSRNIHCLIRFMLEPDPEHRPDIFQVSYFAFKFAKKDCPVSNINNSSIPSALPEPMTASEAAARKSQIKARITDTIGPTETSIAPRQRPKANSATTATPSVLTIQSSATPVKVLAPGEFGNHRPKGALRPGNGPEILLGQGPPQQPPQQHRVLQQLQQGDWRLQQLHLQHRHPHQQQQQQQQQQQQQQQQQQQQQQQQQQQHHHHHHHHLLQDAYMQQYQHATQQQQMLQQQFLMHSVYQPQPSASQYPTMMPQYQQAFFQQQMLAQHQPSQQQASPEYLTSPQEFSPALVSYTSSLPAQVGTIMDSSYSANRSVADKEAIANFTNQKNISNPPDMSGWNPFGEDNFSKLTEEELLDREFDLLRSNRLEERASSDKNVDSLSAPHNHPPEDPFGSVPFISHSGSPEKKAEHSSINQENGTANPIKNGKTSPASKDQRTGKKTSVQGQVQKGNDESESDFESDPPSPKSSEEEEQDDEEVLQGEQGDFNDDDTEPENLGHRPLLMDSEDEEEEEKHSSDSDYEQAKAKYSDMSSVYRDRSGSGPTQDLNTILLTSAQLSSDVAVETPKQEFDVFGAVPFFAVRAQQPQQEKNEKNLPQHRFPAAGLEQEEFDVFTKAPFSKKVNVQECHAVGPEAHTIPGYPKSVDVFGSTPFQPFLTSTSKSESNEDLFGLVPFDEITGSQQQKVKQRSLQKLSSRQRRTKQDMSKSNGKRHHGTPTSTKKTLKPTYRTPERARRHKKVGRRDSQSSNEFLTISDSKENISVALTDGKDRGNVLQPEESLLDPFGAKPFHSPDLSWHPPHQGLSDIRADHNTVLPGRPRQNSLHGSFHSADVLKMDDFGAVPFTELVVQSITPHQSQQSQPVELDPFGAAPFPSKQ

[7] = molecular target: T3, Alpha-2B adrenergic receptor (Homo sapiens) (UniProt P18089); conditions: Compound concentration 10.0 uM
T3 sequence (whole entry): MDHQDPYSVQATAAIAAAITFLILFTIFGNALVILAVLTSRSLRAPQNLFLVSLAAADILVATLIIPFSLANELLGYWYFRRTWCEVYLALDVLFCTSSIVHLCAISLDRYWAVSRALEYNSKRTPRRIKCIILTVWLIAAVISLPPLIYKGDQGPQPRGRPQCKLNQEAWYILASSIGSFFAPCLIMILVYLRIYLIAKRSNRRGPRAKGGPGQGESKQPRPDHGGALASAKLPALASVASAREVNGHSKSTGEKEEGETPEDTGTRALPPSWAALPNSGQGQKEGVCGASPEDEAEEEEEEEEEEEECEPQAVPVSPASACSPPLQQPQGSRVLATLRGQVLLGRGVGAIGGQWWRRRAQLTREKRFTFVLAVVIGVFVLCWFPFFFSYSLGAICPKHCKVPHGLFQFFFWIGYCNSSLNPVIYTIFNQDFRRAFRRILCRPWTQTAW

SMILES | inhibition [1] | delta Tm Staurosporine positive control [2] | ΔTm [2] | delta Tm Staurosporine positive control [3] | ΔTm [3] | inhibition [4] | inhibition [5] | delta Tm Staurosporine positive control [6] | ΔTm [6] | inhibition [7]
CCC[C@@H]1CNCc2c1[nH]c(=O)c(C#N)c2N1CCC2(CC1)CC2 | 2.48% | 17.7 | -0.154 | 14.1 | -0.199 | -5.59% | -2.3% | 18.7 | -0.192 | 16.9%
CCC[C@H]1CNCc2c1[nH]c(=O)c(C#N)c2N1CCC2(CC1)CC2 | -1.19% | 17.7 | 0.00768 | 14.1 | -0.229 | 3.16% | 16.3% | 18.7 | -0.103 | 4.16%
